# Assay results reported in PubChem BioAssay (NCI).
# Several values for one entry are separate records, joined by “and”; a condition that tells them apart may be missing. Identical values can stand only once.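 Method: 48-hour compound exposure of cells in 96-well plates, five concentrations, linear interpolation of endpoints. GI50 marks 50% less growth. TGI denotes the concentration required for complete inhibition of growth.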
# Legend:
# Test in all cases: DTP human tumour cell line panel, 48 h
# EKVX NSCLC = tested on: EKVX NSCLC
# HCT-15 colon = tested on: HCT-15 colon
# KM12 colon = tested on: KM12 colon
# LOX IMVI melanoma = tested on: LOX IMVI melanoma
# M14 melanoma = tested on: M14 melanoma
# NCI-H226 lung = tested on: NCI-H226 lung
# OVCAR-3 ovarian = tested on: OVCAR-3 ovarian
# RXF 393 renal = tested on: RXF 393 renal
# SK-MEL-5 melanoma = tested on: SK-MEL-5 melanoma
# SK-OV-3 ovarian = tested on: SK-OV-3 ovarian
# CCRF-CEM leukemia = tested on: CCRF-CEM leukemia
Compound,TGI (EKVX NSCLC) [µM],TGI (HCT-15 colon) [µM],TGI (KM12 colon) [µM],TGI (LOX IMVI melanoma) [µM],TGI (M14 melanoma) [µM],TGI (NCI-H226 lung) [µM],TGI (OVCAR-3 ovarian) [µM],TGI (RXF 393 renal) [µM],TGI (SK-MEL-5 melanoma) [µM],TGI (SK-OV-3 ovarian) [µM],TGI (CCRF-CEM leukemia) [µM],GI50 (CCRF-CEM leukemia) [µM],GI50 (HCT-15 colon),GI50 (KM12 colon),GI50 (LOX IMVI melanoma),GI50 (NCI-H226 lung) [µM],GI50 (OVCAR-3 ovarian),GI50 (RXF 393 renal),GI50 (SK-MEL-5 melanoma) [µM],GI50 (SK-OV-3 ovarian) [µM]
C/C(=N/NC(=S)Nc1cccc(C)c1)c1ccccn1,2.3,2.24,4.12,9.93,2.46,1.28,0.118,3.55,1.6,2.78,,,,,,,,,,
CCOc1ccc(N=C/C=C(\Cl)c2ccc3ccccc3c2)cc1,62.1,30.2,33.9,15.3,37.7,53.7,31.5,34.1,31,38.4,,,,,,,,,,
Cc1oc2nc(N(C)C)n3nnnc3c2c1C,> 100,> 100,> 100,> 100,> 100,> 100,,> 100,> 100,> 100,> 100,,,,,,,,,
N#Cc1c(OCCF)c2ccccc2n2c1nc1ccccc12,> 100,> 100,> 100,> 100,> 100,> 100,> 100,> 100,> 100,> 100,> 100,,,,,,,,,
c1ccc(N=c2snc(-c3ccccc3)s2)cc1,,> 100,> 100,,> 100,> 100,,> 100,> 100,> 100,> 100,,,,,,,,,
COc1cc([C@@H]2c3cc4c(cc3C[C@H]3COC(=O)[C@@H]32)OCO4)cc(OC)c1OC,> 50,> 2.32,> 50,> 50,,0.891,0.0745,> 50,> 7.93,> 50,21.1,0.00386,0.00318 µM and 0.0109 µM,0.00389 µM and 0.005 µM,0.00281 µM and 0.005 µM,0.00524,0.00424 µM and 0.00911 µM,0.00723 µM and 0.0157 µM,0.00397,0.00431
Nc1ncnc2c1ncn2C(=O)NC12CC3CC(CC(C3)C1)C2,> 100,> 100,> 100,> 100,> 100,> 100,> 100,> 100,> 100,> 100,> 100,,,,,,,,,
CC(C)CCNC(=O)c1ccc(CNC(=O)/C=C/c2ccc(OCc3ccccc3)cc2)cc1,,> 100,> 100,> 100,> 100,> 100,> 100,> 100,> 100,> 100,> 100,,,,,,,,,
CCn1c(=O)c2c3cc(O)ccc3oc2c2ccc(O)cc21,62.6,> 100,> 100,,> 100,> 100,> 100,> 100,> 100,> 100,> 100,,,,,,,,,
Cc1ccc(C(=O)Nc2ccc(CP(=O)(O)O)cc2)cc1NC(=O)c1cccc(NC(=O)Nc2cccc(C(=O)Nc3cc(C(=O)Nc4ccc(CP(=O)(O)O)cc4)ccc3C)c2)c1,> 100,> 100,> 100,> 100,> 100,> 100,> 100,> 100,> 100,> 100,> 100,,,,,,,,,
CC1CC(C#N)=C2NCCCCN2C1=O (stereo not drawn),> 100,> 100,> 100,> 100,> 100,> 100,> 100,> 100,> 100,> 100,> 100,,,,,,,,,
N#CSCc1cccc(Nc2cc(=O)[nH]c(=O)[nH]2)c1,> 100,> 100,> 100,> 100,> 100,> 100,> 100,> 100,99.1,> 100,,,,,,,,,,
COc1ccc(CNc2nc3ccc(C(F)(F)F)cc3nc2-c2ccccc2)cc1OC,> 100,> 100,,> 100,,> 100,> 100,> 100,,> 100,> 100,,,,,,,,,
CC1=C2c3ccccc3N(C(=O)/C=C/C(=O)O)[C@H]2[C@H]2C(=O)OC(=O)[C@H]2C1,> 10,> 10,> 10,,> 10,> 10,> 10,> 10,> 10,> 10,> 10,,,,,,,,,
CCOC(=O)c1c(SCCN2CCCC2)n(-c2ccccc2)c(=S)n(-c2ccccc2)c1=O,27,5.54,29.8,3.79,3.25,33.9,3.35,3.36,10,34.5,4.14,,,,,,,,,
N#CC(C#N)=C1CCCS(=O)(=O)c2ccccc21,> 100,> 100,> 100,> 100,> 100,> 100,> 100,> 100,,> 100,> 100,,,,,,,,,
C=CCCCC12CCCc3cccc(c31)NC2=O (stereo not drawn),37.3,,35.6,62.3,31.1,40.3,39.1,42.8,34.2,45.3,> 100,,,,,,,,,
CC(=O)Nc1ccc(Cl)c(Cl)c1,> 100,> 100,> 100,> 100,> 100,> 100,> 100,> 100,,> 100,> 100,,,,,,,,,
CN1C(=O)CN(NC(=O)C2=C(O)c3ccc(Br)cc3S(=O)(=O)N2)C1=S,> 100,> 100,> 100,> 100,> 100,> 100,,> 100,> 100,> 100,51.1,,,,,,,,,
O=C1/C(=C/c2ccc(Br)s2)NC(=S)N1CN1CCOCC1,> 100,> 100,> 100,61.4,,> 100,> 100,59.7,> 100,,,,,,,,,,,
COc1ccc(NC2Oc3cc4c(cc3C(c3cc(OC)c(OC)c(OC)c3)C2C)OCO4)cc1 (stereo not drawn),34.1,,> 31.6,> 100,> 45.1,5.58,> 100,> 100,4.09,> 100,> 100,,,,,,,,,
